Assay [1] concerns the target T1, SARS-CoV-2 NSP3 Mac1 (Severe acute respiratory syndrome coronavirus 2, UniProt P0DTD1). The arrangement: contains a conserved macrodomain enzyme (Mac1); Differential scanning fluorimetry of Mac1, maximum thermal upshift. Conditions: maximum shift over tested concentrations; binder.
For assay [2], the target named is T1, SARS-CoV-2 NSP3 Mac1. Kind of assay: biochemical. It counts as binding. Conditions: for pIC50: read-out: IC50; for pKi: read-out: Ki***.
In assay [3] the test system is SARS-CoV-2 NSP3 Mac1. Kind of assay: Overall hit call (binding in crystallographic soaking or the HTRF-based binding assay). From the text:
Supplement pnas.2212931120.sd01.xlsx, sheet "Compound Summary" | column: HIT*
In general terms: TR-FRET usually uses a lanthanide donor and a delayed reading to cut background.

The target of assay [4] is T1, SARS-CoV-2 NSP3 Mac1. Type of assay: binding. As to conditions: for 1-BDC (PanDDA): 1 minus background density correction; for 1-BDC (PanDDA) / Refined occupancy: crystal soaking of Mac1; for Refined occupancy: ligand occupancy after refinement (phenix.refine).
The mark [5] stands for this setting: HTRF ADPr-conjugated peptide displacement.
Where [6] appears, read: PanDDA event map background density correction, crystal soak, compound concentration 100 mM.
Setting [7] is: ligand modeled in the crystal structure, crystal soak, compound concentration 100 mM.
Setting [8] is: HTRF ADPr-peptide displacement from SARS-CoV-2 Mac1.
[9] abbreviates: PanDDA 1-BDC of the event, compound stock 100 mM, Echo dispense volume 80 nl.
[10] abbreviates: PanDDA event map 1-BDC, crystal soak, Compound_concentration 100 mM, PanDDA run dmso_34 or nohits_35 per dataset.
Where [11] appears, read: crystal soak, Compound_concentration 100 mM, Echo dispense 40 nl, PanDDA run dmso_34 or nohits_35 per dataset.
Where [12] appears, read: crystal soak, compound stock 100 mM, Echo dispense volume 80 nl.
[13] abbreviates: ligand modeled in structure, compound stock 100 mM, Echo dispense volume 80 nl.
[14] abbreviates: PanDDA event map, crystal soak, Compound_concentration 100 mM, Echo_dispense_volume 40 nl.
Setting [15] is: crystal soak, Compound_concentration 100 mM, Echo_dispense_volume 40 nl, PanDDA run (background map) dmso_34, nohits_35 or nohits_62.

13 compounds from publication PMC9926234, “Iterative computational design and crystallographic screening identifies potent inhibitors targeting the Nsp3 macrodomain of SARS-CoV-2” (Proceedings of the National Academy of Sciences of the …, 2023) can be followed below.

The term pIC50 denotes the IC50 on a negative log10 scale, so that one unit is a factor of ten. For orientation: pKi means −log10 of the Ki, conventionally taken in molar units.

pIC50, pKi: −log10 of the molar value. Where “and” joins values, the source holds several entries; their conditions need not be identical. Equal values may be shown once. Read-outs that look alike come from different tables or passages of the source.

Regarding `O=C(Cc1ccc(-n2cccn2)cc1)OCC1CCCNC1=O` (stereo not drawn) [Z5505, ZINC000835985505], in assay [1], the “DSF max dTma” value stood at 0.16 °C.

As to `CC1CC(C(=O)O)N1C(=O)c1cc(O)nc2ccc(F)cc12.O=C(O)C(F)(F)F` (stereo not drawn) [R0658, REAL300007260658], the “DSF max dTma” value in assay [1] is 0.37 °C.

Turning to `CCC(=O)Nc1nc(C)c(S(=O)(=O)Nc2cccc(C#N)c2)s1` [Z0611], the pIC50 in assay [2] (setting [5]) is 3.84. The negative-log Ki (pKi) in assay [2] is 3.91. Besides, the “HIT*” value in assay [3] was “Y”.

Take `O=C(NC1C=CC(C(=O)O)C1)c1ncnc2sccc12` (stereo not drawn) [Z6645]: the negative logarithm of the IC50 (pIC50) in assay [2] (setting [5]) is 4.16. In assay [2], the pKi was 4.22. Further, in assay [3], the “HIT*” value is reported as “Y”.

Consider `O=C(NC1c2cccc(O)c2CC1C(=O)O)c1ccc2[nH]ccc2c1` (stereo not drawn) [Z8539_2004], for which the pIC50 in assay [2] (setting [5]) was 5.14. In assay [2], the pKi was 5.20. Also, the 1-BDC in assay [4] (setting [6]) is 0.41 and 0.22. Further, the “1-BDC (PanDDA)” value in assay [4] (PanDDA event map) turned out to be 0.22. Besides, in assay [4] (setting [7]), the “Modeled?” value was “TRUE”. The compound also returned a Refined occupancy in assay [4] of 44. Further, in assay [3], the “HIT*” value is “Y”.

For `O=C(O)CC1CN(c2ncnc3[nH]c4cc(F)ccc4c23)CC2(CCC2)O1` (stereo not drawn) [LL114_0024], the pIC50 was 4.71 in assay [2] (setting [5]); 4.71 and 4.70 in assay [2] (setting [8]). Besides, the pKi in assay [2] was 4.77. In addition, the figures for the 1-BDC in assay [4] (setting [9]) and in assay [4] (setting [10]) were 0.11 and 0.06, respectively. Besides, the “1-BDC (PanDDA)” value in assay [4] (PanDDA event map) worked out at 0.11. Also, the “PanDDA hit?” value in assay [4] (setting [11]) and in assay [4] (setting [12]) was “TRUE” in each case. In assay [4] (setting [13]), the “Modeled?” value is listed as “TRUE”. In assay [4], this compound returned a Refined occupancy of 22. In addition, the “HIT*” value in assay [3] is “Y”.

Consider `O=C(NCc1c(C(=O)O)[nH]c2ccccc12)c1ccc2[nH]cnc2c1` [Z8539_2005], for which the pIC50 in assay [2] (setting [5]) is 4.61. For the same compound, the negative logarithm of the Ki (pKi) in assay [2] was 4.67. The 1-BDC was 0.21 and 0.19 in assay [4] (setting [6]); 0.24 in assay [4] (setting [14]). In assay [4] (PanDDA event map), the “1-BDC (PanDDA)” value is recorded as 0.19. Also, the “PanDDA hit?” value in assay [4] (setting [15]) is given as “TRUE”. Also, the “Modeled?” value in assay [4] (setting [7]) is reported as “TRUE”. This compound also had a Refined occupancy in assay [4] of 38. In addition, the “HIT*” value in assay [3] is “Y”.

In the case of `O=C(O)CCC1CN(c2ncnc3[nH]c4cc(F)ccc4c23)CCO1` (stereo not drawn) [LL114_0041], the pIC50 in assay [2] (setting [5]) is 4.16. Moreover, the pKi in assay [2] was 4.22. Also, the figures for the 1-BDC in assay [4] (setting [9]), in assay [4] (setting [10]) and in assay [4] (setting [14]) were 0.15, 0.15 and 0.16, respectively. Also, the “1-BDC (PanDDA)” value in assay [4] (PanDDA event map) stood at 0.16. The “PanDDA hit?” value in assay [4] (setting [11]), in assay [4] (setting [15]) and in assay [4] (setting [12]) was “TRUE” throughout. For the same compound, the “Modeled?” value in assay [4] (ligand modeled, crystal soak, Compound_concentration 100 mM, Echo_dispense_volume 40 nl) is reported as “TRUE”. Further, the Refined occupancy in assay [4] stood at 32. Moreover, the “HIT*” value in assay [3] was “Y”.

With `Cl.O=C(O)C1CN(c2ncnc3[nH]c4cc(F)ccc4c23)CCO1` (stereo not drawn) [LL114_0033], the negative logarithm of the IC50 (pIC50) in assay [2] (setting [5]) is 4.39. For the same compound, the pKi in assay [2] is 4.45. In addition, the 1-BDC was found to be 0.15 in assay [4] (PanDDA 1-BDC of the event, compound stock 100 mM, Echo dispense volume 40 nl) and 0.15 in assay [4] (setting [10]). The “1-BDC (PanDDA)” value in assay [4] (PanDDA event map) was determined as 0.15. For the same compound, the “PanDDA hit?” value was “TRUE” in assay [4] (setting [11]) and “TRUE” in assay [4] (crystal soak, compound stock 100 mM, Echo dispense volume 40 nl). Also, the “Modeled?” value in assay [4] (ligand modeled in structure, compound stock 100 mM, Echo dispense volume 40 nl) was “TRUE”. Further, the Refined occupancy in assay [4] is 30. In assay [3], the “HIT*” value is “Y”.

The compound `c1ccc(CNc2ncnc3[nH]ccc23)nc1` [SRH-0028] yielded a 1-BDC in assay [4] (setting [10]) of 0.09. For the same compound, in assay [4] (PanDDA event map), the “1-BDC (PanDDA)” value was found to be 0.09. Further, the “PanDDA hit?” value in assay [4] (setting [11]) is “TRUE”. Also, the “Modeled?” value in assay [4] (ligand modeled in this dataset, crystal soak, Compound_concentration 100 mM) is on record as “TRUE”. Further, in assay [4], the Refined occupancy was 18. In assay [3], the “HIT*” value is listed as “Y”.

With `Cn1ncc2ncnc(NS(=O)(=O)Cc3ccc(CC#N)cc3)c21` [Z6742], the pIC50 in assay [2] (setting [5]) is 4.37. In addition, the pKi in assay [2] was 4.43. Further, the “HIT*” value in assay [3] is on record as “Y”.

As for `O=C(O)CC(NC(=O)c1cc(F)cc2[nH]cnc12)c1ccc(Br)cc1` (stereo not drawn) [Z3722], in assay [2] (setting [5]), the pIC50 is 4.58. The pKi in assay [2] was 4.64. In assay [3], the “HIT*” value is on record as “Y”.

In the case of `O=C(O)C1(F)CN(c2ncnc3[nH]c4cc(F)ccc4c23)CC12COC2` (stereo not drawn) [LL123_0031], the results for the pIC50 in assay [2] (setting [5]) and in assay [2] (setting [8]) were 4.63 and 4.64, respectively. Moreover, in assay [2], the pKi is 4.69. In assay [4] (setting [9]), this compound yielded a 1-BDC of 0.08. Besides, the “1-BDC (PanDDA)” value in assay [4] (PanDDA event map) was found to be 0.08. Moreover, in assay [4] (setting [12]), the “PanDDA hit?” value is reported as “TRUE”. Also, in assay [4] (setting [13]), the “Modeled?” value is listed as “TRUE”. This compound gave a Refined occupancy in assay [4] of 16. Further, the “HIT*” value in assay [3] was “Y”.
